Laboratory results taken from patent US11195594B2, “Method for selecting anticancer agent based on protein damage information of individual to prevent anticancer agent side effects” (CIPHEROME, INC., priority 2015, dated 2021).

Test: Side effect profile of pediatric leukemia patients during busulfan preconditioning for bone marrow transplantation
Type: in vivo, human
Description: Firstly, an analysis was conducted on 146 pediatric leukemia patients showing warning signs of serious side effects during treatment with the anticancer agent busulfan (Myleran, GlaxoSmithKline, Busulfex IV, Otsuka America Pharmaceutical, Inc.) to remove bone marrow as a preconditioning for bone marrow transplantation.

[1] = of 146 pediatric leukemia patients treated with busulfan

SMILES: CS(=O)(=O)OCCCCOS(C)(=O)=O [Busulfan]
- Number of patients: AUC 170 or higher (human, in vivo): 71
- Number of patients: Hepatic veno-occlusive disease (human, in vivo): 18
- Number of patients: Intermediate toxicity grade 3 or higher (human, in vivo): 11
- Number of patients: Intermediate toxicity grade 4 or higher (human, in vivo): 1
- Number of patients: Short-term toxicity grade 3 or higher (human, in vivo): 31
- Number of patients: Short-term toxicity grade 4 or higher (human, in vivo): 2
- Number of patients: Death [1]: 36
- Number of patients: Toxicity-related death [1]: 22
